This test addresses T1, IKKα (Mus musculus, UniProt Q60680).
T1 sequence (Q60680 1-745): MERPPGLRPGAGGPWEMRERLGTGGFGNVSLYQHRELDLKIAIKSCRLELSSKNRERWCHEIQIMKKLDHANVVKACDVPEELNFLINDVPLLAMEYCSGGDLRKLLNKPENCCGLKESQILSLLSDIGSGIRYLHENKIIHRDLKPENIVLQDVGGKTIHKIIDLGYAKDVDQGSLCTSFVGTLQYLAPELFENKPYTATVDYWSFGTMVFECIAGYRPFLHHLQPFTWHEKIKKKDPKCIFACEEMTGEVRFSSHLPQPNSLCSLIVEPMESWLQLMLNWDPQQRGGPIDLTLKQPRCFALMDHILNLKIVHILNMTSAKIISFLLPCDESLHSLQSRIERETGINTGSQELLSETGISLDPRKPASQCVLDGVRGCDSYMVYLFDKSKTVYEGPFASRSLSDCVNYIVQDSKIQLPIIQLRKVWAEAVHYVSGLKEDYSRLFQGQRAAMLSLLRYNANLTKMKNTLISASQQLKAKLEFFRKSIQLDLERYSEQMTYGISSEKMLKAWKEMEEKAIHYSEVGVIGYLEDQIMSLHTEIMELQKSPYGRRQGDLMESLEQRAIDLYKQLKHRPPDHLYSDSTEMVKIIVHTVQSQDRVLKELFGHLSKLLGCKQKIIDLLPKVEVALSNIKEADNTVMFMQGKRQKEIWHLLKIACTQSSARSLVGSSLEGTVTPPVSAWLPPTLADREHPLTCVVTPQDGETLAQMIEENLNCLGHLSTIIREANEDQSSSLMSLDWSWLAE
Briefly: IKKα KinEASE FP kinase activity assay, RANKL-stimulated RAW […] cells. The class given is cell-based.

The structures appear in SMILES notation.

As to `O=C1C[C@@H](O[C@@H]2O[C@H](CO)[C@@H](O)[C@H](O)[C@H]2O)CO1` [kinsenoside, 3-(R)-3-β-D-glucopyranosyloxybutanolide], the IC50 (in general, the midpoint of a concentration-inhibition curve) is ~57.6 µM.

Source of the values: publication PMC3627854 (Osteoporosis International, 2012).
